From patent publication US20260151441A1, “NOVEL USE OF LACTOBACILLUS DELBRUECKII SUBSP. LACTIS STRAIN” (CKD BIO CORPORATION, priority 2022, published 2026)

Legend:
[1] = Y-maze test in scopolamine-induced cognitive impairment animal model; type: in vivo; settings: 5 mg/kg
Experimental: The Y-maze test is used to assess short-term memory and momentary spatial perception by evaluating the animal's ability to remember the previously explored arm, with higher memory performance indicated by a lower tendency to re-enter the same arm.
Specifically, scopolamine, which induces memory impairment, was administered together with either saline (vehicle), a known treatment for cognitive impairment or AD (donepezil or decursin), or the strain of the present invention, followed by the Y-maze test.
The Y-maze consists of three arms with dimensions of 40 cm in length, 3 cm in width, and 15 cm in height, with the angles between the arms set at 120°. […]
The control and experimental groups were placed at the center of the Y-maze, where they were allowed to explore the maze for 8 minutes. The movement of each individual was analyzed using EthoVision XT16 (Noldus, USA). The experimental results were obtained as spontaneous alternation behavior (%) and calculated according to the following equation: […]

[2] = Passive avoidance test in scopolamine-induced cognitive impairment animal model; type: in vivo, rodents; settings: 5 mg/kg, 24 h after shock
Excerpt: The passive avoidance test is a cognitive ability assessment experiment that utilizes the preference of rodents to stay in dark places.
Specifically, saline (as a vehicle), donepezil (a therapeutic agent for cognitive impairment or AD), decursin (a functional ingredient recognized for improving cognitive function), or the strain of the present invention was co-administered with scopolamine which induces memory impairment, followed by the passive avoidance test. […]
The control and experimental groups were placed in chambers consisting of a bright chamber and a dark chamber of the same size. […] After 24 hours, the animals were again placed in the bright chamber, and the time taken to enter the dark chamber was measured for up to 300 seconds to evaluate memory.

Row | SMILES | increase in spontaneous alternation behavior compared to vehicle-treated group (G2) [1] | memory recovery [2]
1 | CC(C)=CC(=O)O[C@H]1Cc2cc3ccc(=O)oc3cc2OC1(C)C [decursin] | ~1.3 fold | about 87%
2 | COc1cc2c(cc1OC)C(=O)C(CC1CCN(Cc3ccccc3)CC1)C2 (stereo not shown) [donepezil] | ~1.3 fold | about 74%
